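Protocol summary: plate cells (96-well), add compound at 5 concentrations, incubate 48 h, interpolate endpoints linearly. GI50: concentration for 50% inhibition of growth.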 Calls of active or inactive are those of the source. No stated cut-off is given here; in the data, active = GI50 up to about 1.1 µM and inactive = higher.
Tests used:
Assay in all cases: NCI anticancer screen, dose series, 48 h
[1] = system: SR
[2] = system: M19-MEL
[3] = system: OVCAR-8
[4] = system: SN12C
[5] = system: XF498
[6] = system: KM12
[7] = system: KM-20L2
[8] = system: HL-60
[9] = system: RPMI-8226
[10] = system: COLO 205
[11] = system: SNB-78
[12] = system: DLD-1
[13] = system: OVCAR-3
[14] = system: UO-31
[15] = system: IGROV-1
[16] = system: TK-10
[17] = system: SW-620
[18] = system: HOP-62
[19] = system: SK-MEL-5
[20] = system: HOP-92
[21] = system: ACHN
[22] = system: OVCAR-5
[23] = system: HCT-116
[24] = system: SK-OV-3
[25] = system: SNB-75
[26] = system: A498
[27] = system: UACC-257
[28] = system: U-251
[29] = system: M14
[30] = system: OVCAR-4
[31] = system: DMS-114
[32] = system: 786-0
[33] = system: CCRF-CEM
[34] = system: SF-295
[35] = system: A549
[36] = system: UACC-62
[37] = system: NCI-H522
[38] = system: SF-268
[39] = system: HT-29
[40] = system: SK-MEL-2
[41] = system: HCC 2998
[42] = system: SNB-19
[43] = system: LXFL 529
[44] = system: SK-MEL-28
[45] = system: Malme-3M
[46] = system: CAKI-1
[47] = system: NCI-H226
[48] = system: NCI-H460
[49] = system: EKVX
[50] = system: K562
[51] = system: NCI-H23
[52] = system: MOLT-4
[53] = system: RXF 393
[54] = system: DMS-273
[55] = system: SF-539
[56] = system: HOP-18
[57] = system: HCT-15

In the case of `Cc1cccc2c1N(C(=O)/C=C\C(=O)O)C(c1c(C)[nH]c3ccccc13)C2` (stereo not given), the GI50 [1] was 31 µM (inactive), the GI50 [2] was 22.7 µM (inactive) and the GI50 [3] was 55.6 µM (inactive). For the same compound, the GI50 [4] was 40.7 µM (inactive), the GI50 [5] was 21.9 µM (inactive) and the GI50 [6] was 33.5 µM (inactive). The GI50 [7] was > 100 µM (inactive), the GI50 [8] was 20.7 µM (inactive) and the GI50 [9] was 28.4 µM (inactive). The GI50 [10] was > 10 µM (inactive), the GI50 [11] was 31.2 µM (inactive) and the GI50 [12] was 33.6 µM (inactive). For the same compound, the GI50 [13] was > 10 µM (inactive), the GI50 [14] was > 100 µM (inactive) and the GI50 [15] was > 10 µM (inactive). For the same compound, the GI50 [16] was 73.5 µM (inactive), the GI50 [17] was 28.4 µM (inactive) and the GI50 [18] was > 100 µM (inactive). For the same compound, the GI50 [19] was 18.2 µM (inactive), the GI50 [20] was 22.5 µM (inactive) and the GI50 [21] was 84.3 µM (inactive). The GI50 [22] was > 100 µM (inactive), the GI50 [23] was 23.2 µM (inactive) and the GI50 [24] was 30.8 µM (inactive). The GI50 [25] was > 10 µM (inactive), the GI50 [26] was > 100 µM (inactive) and the GI50 [27] was 33.8 µM (inactive). The GI50 [28] was > 10 µM (inactive), the GI50 [29] was 55.1 µM (inactive) and the GI50 [30] was 57.7 µM (inactive). For the same compound, the GI50 [31] was 19.9 µM (inactive), the GI50 [32] was 40.8 µM (inactive) and the GI50 [33] was 34.8 µM (inactive). For the same compound, the GI50 [34] was 44.8 µM (inactive), the GI50 [35] was > 100 µM (inactive) and the GI50 [36] was 18.9 µM (inactive). For the same compound, the GI50 [37] was 18.5 µM (inactive), the GI50 [38] was > 10 µM (inactive) and the GI50 [39] was > 100 µM (inactive). For the same compound, the GI50 [40] was 19.9 µM (inactive), the GI50 [41] was 18.5 µM (inactive) and the GI50 [42] was 36.2 µM (inactive). For the same compound, the GI50 [43] was 15.3 µM (inactive), the GI50 [44] was 21.9 µM (inactive) and the GI50 [45] was 20.1 µM (inactive). For the same compound, the GI50 [46] was 30.3 µM (inactive), the GI50 [47] was 49.3 µM (inactive) and the GI50 [48] was > 100 µM (inactive). For the same compound, the GI50 [49] was > 100 µM (inactive), the GI50 [50] was 36.6 µM (inactive) and the GI50 [51] was 43.8 µM (inactive). The GI50 [52] was 31.2 µM (inactive).
`NCCCCN(CCCN)/[N+]([O-])=N\O` was tested, and the GI50 [1] was > 100 µM (inactive), the GI50 [2] was > 100 µM (inactive) and the GI50 [3] was > 100 µM (inactive). For the same compound, the GI50 [4] was > 100 µM (inactive), the GI50 [6] was > 100 µM (inactive) and the GI50 [7] was > 100 µM (inactive). The GI50 [8] was > 100 µM (inactive), the GI50 [9] was > 100 µM (inactive) and the GI50 [10] was > 100 µM (inactive). For the same compound, the GI50 [11] was > 100 µM (inactive), the GI50 [12] was > 100 µM (inactive) and the GI50 [13] was > 100 µM (inactive). For the same compound, the GI50 [14] was > 100 µM (inactive), the GI50 [15] was > 100 µM (inactive) and the GI50 [53] was > 100 µM (inactive). The GI50 [17] was > 100 µM (inactive), the GI50 [18] was > 100 µM (inactive) and the GI50 [19] was > 100 µM (inactive). The GI50 [54] was > 100 µM (inactive), the GI50 [20] was > 100 µM (inactive) and the GI50 [21] was > 100 µM (inactive). The GI50 [22] was > 100 µM (inactive), the GI50 [23] was > 100 µM (inactive) and the GI50 [24] was > 100 µM (inactive). The GI50 [25] was > 100 µM (inactive), the GI50 [27] was > 100 µM (inactive) and the GI50 [28] was > 100 µM (inactive). For the same compound, the GI50 [29] was > 100 µM (inactive), the GI50 [30] was > 100 µM (inactive) and the GI50 [31] was > 100 µM (inactive). The GI50 [32] was > 100 µM (inactive), the GI50 [33] was > 100 µM (inactive) and the GI50 [34] was > 100 µM (inactive). The GI50 [35] was > 100 µM (inactive), the GI50 [55] was > 100 µM (inactive) and the GI50 [36] was > 100 µM (inactive). The GI50 [37] was > 100 µM (inactive), the GI50 [38] was > 100 µM (inactive) and the GI50 [39] was > 100 µM (inactive). The GI50 [40] was > 100 µM (inactive), the GI50 [41] was > 100 µM (inactive) and the GI50 [42] was > 100 µM (inactive). The GI50 [43] was > 100 µM (inactive), the GI50 [44] was > 100 µM (inactive) and the GI50 [45] was > 100 µM (inactive). For the same compound, the GI50 [46] was > 100 µM (inactive), the GI50 [47] was > 100 µM (inactive) and the GI50 [56] was > 100 µM (inactive). The GI50 [48] was > 100 µM (inactive), the GI50 [57] was over 100 µM and the GI50 [50] was > 100 µM (inactive). For the same compound, the GI50 [51] was > 100 µM (inactive) and the GI50 [52] was > 100 µM (inactive).

Reference: ChEMBL document CHEMBL1201862, “PubChem BioAssay data set” (2004)
